Test system: 5-LO
Assay: Lipoxygenase inhibition: release of leukotriene B4 (LTB4) from human polymorphonuclear leukocytes (PMN) after addition of substance and Ca ionophore, reverse phase HPLC
Type: cell-based
Conditions: polymorphkernige Humanleukozyten (PMN), Ca-Ionophor
From the text: Die pharmakologischen Wirkungen der erfindungsgemäßen Substanzen werden durch folgende Methode bestimmt:
Als Maß für die Lipoxyenase-Hemmung wurde die Freisetzung von Leukotrien B4 (LTB4) an polymorphkernigen Humanleukozyten (PMN) nach Zugabe von Substanzen und Ca-Ionophor mittels reverse phase HPLC nach Borgeat, P. et al., Proc. Nat. Acad. Sci, 76, 2148 -2152 (1979), bestimmt.
In der Tabelle 1 sind beispielhaft die nach diesem Test erzielten Werte einiger erfindungsgemäßer Verbindungen aufgeführt: Tabelle 1

| SMILES | IC50 [nM] |
| --- | --- |
| COC(=O)C(c1ccc(OCc2ccc3ccccc3n2)c(F)c1)C1CCCC1 (stereo not shown) [Beispiel 1, 2-[3-Fluor4-(chinolin-2-methoxy)phenyl]-2-cyclopentylessigsäuremethylester] | 2500 |
| O=C(O)C(c1ccc(OCc2ccc3ccccc3n2)c(F)c1)C1CCCC1 (stereo not shown) [Beispiel 27, 2-[3-Fluor-4-(chinolin-2-yl-methoxy)phenyl]-2-cyclopentylessigsäure] | 690 |
| O=C(O)C(c1ccc(OCc2ccc3ccccc3n2)c(-n2cccc2)c1)C1CCCCCC1 (stereo not shown) [Beispiel 40] | 790 |
| C=Cc1cc(C(C(=O)O)C2CCCC2)ccc1OCc1ccc2ccccc2n1 (stereo not shown) [Beispiel 41] | 560 |

— EP0499926B1, “2-Substituted quinolines, process for their preparation as well as their use in medicaments” (BAYER AG, priority 1991, dated 1992)
